Laboratory results as given in US8658383B2, “Sweet taste receptor-expressing construct, cell body expressing the same, and utilization thereof” (T. Hasegawa Co., Ltd., priority 2009, dated 2014).
Residues, ends and D or L forms follow the SMILES beside them.

Key:
[1] = target: T1, human sweet taste receptor (hT1R2+hT1R3) (Homo sapiens, UniProt Q7RTX0+Q8TE23); experiment: Fluorescent microscope calcium imaging (Fura-2 AM) of cultured cell strains (A) to (C); details: for cell response (response cell number of 100 randomly selected cells): Aspartame final concentration 10 mM, FIG. 11
T1 sequence (Q8TE23 20-839): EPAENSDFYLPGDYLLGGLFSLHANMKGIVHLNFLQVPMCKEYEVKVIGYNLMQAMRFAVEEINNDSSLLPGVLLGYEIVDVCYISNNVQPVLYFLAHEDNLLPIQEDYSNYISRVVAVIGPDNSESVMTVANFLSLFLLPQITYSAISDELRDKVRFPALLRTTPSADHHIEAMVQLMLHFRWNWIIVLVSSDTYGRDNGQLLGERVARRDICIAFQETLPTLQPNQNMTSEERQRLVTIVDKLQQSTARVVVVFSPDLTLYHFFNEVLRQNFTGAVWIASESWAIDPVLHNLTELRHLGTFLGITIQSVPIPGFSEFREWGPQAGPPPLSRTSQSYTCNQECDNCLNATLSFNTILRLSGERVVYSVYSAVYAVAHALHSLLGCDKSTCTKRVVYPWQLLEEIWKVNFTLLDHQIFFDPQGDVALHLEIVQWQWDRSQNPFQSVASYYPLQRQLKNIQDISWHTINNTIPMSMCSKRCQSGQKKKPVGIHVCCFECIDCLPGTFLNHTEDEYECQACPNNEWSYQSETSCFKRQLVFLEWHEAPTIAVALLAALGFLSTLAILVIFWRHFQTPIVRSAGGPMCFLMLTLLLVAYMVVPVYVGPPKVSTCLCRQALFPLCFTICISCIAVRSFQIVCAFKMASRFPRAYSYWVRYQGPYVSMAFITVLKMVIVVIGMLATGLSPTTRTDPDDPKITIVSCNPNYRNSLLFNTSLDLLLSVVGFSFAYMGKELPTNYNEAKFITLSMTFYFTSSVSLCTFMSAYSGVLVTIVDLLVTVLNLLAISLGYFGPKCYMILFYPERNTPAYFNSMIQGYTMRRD
T1 sequence (Q7RTX0 21-852): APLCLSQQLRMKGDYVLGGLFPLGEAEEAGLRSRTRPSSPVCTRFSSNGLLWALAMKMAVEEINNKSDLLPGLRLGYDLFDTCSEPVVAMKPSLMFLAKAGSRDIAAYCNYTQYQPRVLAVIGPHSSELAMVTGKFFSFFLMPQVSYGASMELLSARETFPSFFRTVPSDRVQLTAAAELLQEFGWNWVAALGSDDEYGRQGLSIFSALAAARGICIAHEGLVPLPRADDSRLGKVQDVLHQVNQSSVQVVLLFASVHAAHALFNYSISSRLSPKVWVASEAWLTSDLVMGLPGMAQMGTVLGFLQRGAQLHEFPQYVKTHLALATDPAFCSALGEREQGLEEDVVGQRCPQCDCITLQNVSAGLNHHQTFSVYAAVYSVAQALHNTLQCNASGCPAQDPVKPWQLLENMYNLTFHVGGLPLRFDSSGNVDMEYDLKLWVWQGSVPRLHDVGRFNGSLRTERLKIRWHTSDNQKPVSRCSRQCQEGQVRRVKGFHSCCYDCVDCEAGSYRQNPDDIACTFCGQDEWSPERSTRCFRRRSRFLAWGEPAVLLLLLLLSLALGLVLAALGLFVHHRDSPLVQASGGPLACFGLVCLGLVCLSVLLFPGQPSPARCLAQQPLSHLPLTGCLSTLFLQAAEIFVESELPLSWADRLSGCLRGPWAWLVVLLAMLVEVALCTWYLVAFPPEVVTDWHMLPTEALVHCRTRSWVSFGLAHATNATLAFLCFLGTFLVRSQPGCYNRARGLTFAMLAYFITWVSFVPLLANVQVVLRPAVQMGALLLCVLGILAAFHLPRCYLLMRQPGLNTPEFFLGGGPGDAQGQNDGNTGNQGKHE
Procedure: Fluorescent calcium imaging using a fluorescent microscope can be performed according to the following procedure.
First, cells are suspended in a low glucose (1,000 mg/ml) DMEM medium, from which hygromycin B has been removed, and each 40 to 80 thousands cells are seeded on each well of a 96-well plate (Greiner, Lumox).
Then, after cultured at 37° C. for 24 to 48 hours, a medium is removed and is replaced with a suitable amount of a HEPES buffer, and a HEPES buffer containing a fluorescent calcium indicator (Fura-2 AM) is further added.
After incubated at 27 to 37° C. for 30 to 60 minutes, an extracellular fluorescent indicator is removed, and this is finally replaced with a suitable amount of a HEPES buffer, and is allowed to stand at room temperature for 10 to 20 minutes. By adding thereto a sweet taste substance at a particular concentration or a solution of a sweet taste substance and a substance to be tested, taste stimulation is performed at room temperature. In the fluorescent indicator Fura-2 (excitation wavelength: 340 nm/380 nm, fluorescent wavelength: 510 nm), a fluorescent intensity of excitation at 340 nm is increased, and a fluorescent intensity of excitation at 380 nm is reduced, when a calcium ion concentration is increased.
Cells loaded with Fura-2 AM were excited at 340 nm and 380 nm, and a fluorescent image observed at 510 nm was taken using a fluorescent microscope and a CCD camera. While the image was taken, Aspartame at each final concentration of 0.1 mM, 0.5 mM, 1 mM, 2 mM and 5 mM was administered to cells and then the image was continuously taken.
Cells loaded with Fura-2 AM were excited at 340 nm and 380 nm, and a fluorescent image observed at 510 nm was taken by using a fluorescent microscope and a CCD camera. While the image was taken, Sucrose at each final concentration of 20 mM, 50 mM, 100 mM, 200 mM, 500 mM and 1 M was administered to cells and then the image was continuously taken.
Cells loaded with Fura-2 AM were excited at 340 nm and 380 nm, and a fluorescent image observed at 510 nm was taken by using a fluorescent microscope and a CCD camera. While the image was taken, sucrose at final concentration of 500 mM was administered to cells and then the image was continuously taken.

[2] = target: T2, hT1R3 (Homo sapiens, UniProt Q7RTX0); experiment: Fluorescent microscope calcium imaging (Fura-2 AM) of comparison cultured cell strain (D) expressing hT1R3 and hG16gust44 only; format: cell-based; details: Aspartame final concentration 10 mM, FIG. 11
T2 construct: The sweet taste receptor subunits T1R2 and T1R3 include an entire part of each subunit
T2 sequence (Q7RTX0 21-852): T1 sequence (Q7RTX0 21-852)
Procedure: Each of the cultured cell strains (A) to (C) prepared in Example 4 was loaded with a fluorescent calcium indicator Fura-2 AM, and cells were prepared to take them in. Cells loaded with Fura-2 AM were excited at 340 nm and 380 nm, and a fluorescent image observed at 510 nm was taken using a fluorescent microscope and a CCD camera. While the image was taken, Aspartame at a final concentration of 10 mM was administered to cells and, thereafter, the image was continuously taken. From the field of the taken image, 100 cells were randomly selected, and the response cell number was counted.
As comparison, using an expression construct consisting of pcDNA5/FRT having a sequence in which a cDNA encoding hT1R3 and a cDNA encoding hG16gust44 are connected downstream of a CMV promoter, so that an IRES sequence is flanked by those cDNAs (FIG. 10), a cultured cell strain (D) was prepared similarly as in Example 4, and the response cell number was subjected to counting as described above.

For `COC(=O)[C@H](Cc1ccccc1)NC(=O)[C@@H](N)CC(=O)O` [aspartame] (H-Asp-Phe-OMe), the “cell response (response cell number of 100 randomly selected cells)” value ([1]; cultured cell strain (A)) was “very strong cell response was observed”, the “cell response (response cell number of 100 randomly selected cells)” value ([1]; cultured cell strain (B), compared with strain (A)) was “weaker cell response was observed” and the “cell response (response cell number of 100 randomly selected cells)” value ([1]; cultured cell strain (C), compared with strain (A)) was “weaker cell response was observed”. The “sweet taste response (fluorescent images)” value ([1]; cultured cell strain (A), Aspartame in a range of 0.1 mM to 5 mM, FIG. 12) was “concentration-dependent sweet taste response was observed” and the “cell response (response cell number of 100 randomly selected cells)” value [2] was “cell response was not observed”.
